Data from patent US10981906B2, “Substituted pyrrolopyridine JAK inhibitors and methods of making and using the same” (ACLARIS THERAPEUTICS, INC., priority 2017, dated 2021).
Where a name gives a salt, the structure may show the parent alone. Read-outs that look alike come from different tables or passages of the source.

Legend:
[1] = system: IL-2 stimulated STAT5 phosphorylation on Tyr694 (JAK1/3); assay: JAK1/3 cellular target modulation: IL-2 stimulated phospho-STAT5 in PBMC; type: cell-based; settings: IL-2 25 ng/ml, 1 hour compound preincubation, read-out: IL2-STAT5 Inhibition IC50
Source text: (§1) Target modulation was based upon the ability of a compound to inhibit JAK isoform specific phosphorylation of selected substrates. IL-2 stimulated STAT5 phosphorylation on Tyr694 was used to assess JAK1/3 compound selectivity. GM-CSF stimulated STAT5 phosphorylation on Tyr694 was used to assess JAK2 compound selectivity. IFNγ stimulated STAT1 phosphorylation on Tyr701 was used to assess JAK1/2 compound selectivity. For all three assays, human PBMC from frozen stocks were thawed, pelleted, resuspended in complete media (90% RPMI, 10% heat inactivated FBS, 10 mM HEPES, 47 μM 2-ME, pen/strep) and placed in wells of a 96 well V-bottom plate at 200,000 per well in 120 μl complete media. Compounds were added as 15 μl per well of 10× working stock solutions in complete media with 1% DMSO (or medium with 1% DMSO for controls) and placed on a plate shaker in a 37° C. incubator with 5% CO2 for 1 hour with gentle shaking (setting of 3). Stimulation used the addition of soluble cytokines. For the JAK1/3 phospho-STAT5 assay, 15 μl of 10× working stock recombinant human IL-2 was added to a final concentration of 25 ng/ml. For the JAK2 phospho-STAT5 assay, 15 μl of 10× working stock recombinant human GM-CSF was added to a final concentration of 5 ng/ml. For the JAK1/2 phospho-STAT1 assay, 15 μl of 10× working stock of recombinant human IFNγ was added to a final concentration of 10 ng/ml. Plates were then placed back on the plate shaker in the incubator for an additional 5, 5 and 10 minutes respectively upon which the plates were removed from the incubator, sealed with a plate sealer and the cells pelleted at 400×g for 5 minutes. After pelleting, the media was removed by aspiration and the cells were lysed in ELISA specific cell lysis buffer. The levels of phospho-STAT5 were determined using a Phospho (Tyr694)/Total STAT5a,b Whole Cell Lysate kit from Meso Scale Discovery. Levels of phospho-STAT1 were determined using a CST-PathScan Phospho-STAT1 (Tyr701) Sandwich ELISA kit.

JAK3 (a.a. 781-1124) = JAK3 (a.a. 781-1124) (Homo sapiens (Human), UniProt P52333); assay: JAK3 enzyme activity assay (SRCtide phosphorylation, Caliper); type: biochemical; settings: 2.5 nM JAK3, 1 μM SRCtide, 1 uM ATP, 40 minutes; read-out: JAK3 Inhibition IC50
Sequence of JAK3 (a.a. 781-1124) (P52333 781-1124): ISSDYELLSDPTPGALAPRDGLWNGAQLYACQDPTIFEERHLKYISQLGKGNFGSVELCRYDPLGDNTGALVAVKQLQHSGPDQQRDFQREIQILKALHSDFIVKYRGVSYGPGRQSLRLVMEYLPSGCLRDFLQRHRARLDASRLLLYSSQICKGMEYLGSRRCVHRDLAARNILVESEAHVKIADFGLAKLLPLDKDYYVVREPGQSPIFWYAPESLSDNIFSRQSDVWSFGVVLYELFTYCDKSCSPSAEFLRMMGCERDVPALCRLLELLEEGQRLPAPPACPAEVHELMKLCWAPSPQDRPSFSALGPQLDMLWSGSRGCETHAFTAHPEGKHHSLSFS
Method: The activity of JAK3 (a.a. 781-1124, ThermoFisher) was quantified by measuring the phosphorylation of SRCtide (FAM-GEEPLYWSFPAKKK-NH2). Kinase reactions were run in a 384-well Greiner plate with 2% final DMSO concentration under the buffer conditions of 20 mM HEPES, pH 7.5, 10 mM MgCl2, 0.01% BSA, and 0.0005% Tween-20. The kinase reaction components were 2.5 nM JAK3, 1 μM SRCtide peptide and 1 uM ATP. Examples were tested in dose-response starting at 2 μM (11 concentrations, 3-fold serial dilution, duplicate reactions). The reactions were incubated at room temperature for 40 minutes, then stopped by adding a 1:1 volume of 30 mM EDTA in 20 mM HEPES, pH 7.5 (15 mM EDTA final). After the reaction was stopped, the phosphorylated and unphosphorylated peptides were separated and quantified using a Caliper LC3000/EZ-Reader system and HTS Well Analyzer Software (Caliper, A PerkinElmer Company, Hopkinton, Mass.). GraFit (Erithacus Software Ltd., Horley, U.K.) was used to calculate inhibitor potency by fitting dose-response data to the 4-parameter logistical IC50 equation.
(§2) Background signal is defined in the absence of enzyme and uninhibited signal is defined in the presence of vehicle (2% DMSO) alone. Compounds were evaluated in an 11 point dose-response ranging from […] to 0.34 nM. IC50 values of compounds are determined using a 4 parameter logistical fit of emission ratio as a function of the concentration of compound.

JAK1 = JAK1 (Homo sapiens (Human), UniProt P23458); assay: JAK1 enzyme activity assay (Thermo Fisher SelectScreen Z-lyte); type: biochemical; settings: 1 hour kinase reaction, read-out: JAK1 Inhibition IC50
Sequence of JAK1 (P23458 whole entry): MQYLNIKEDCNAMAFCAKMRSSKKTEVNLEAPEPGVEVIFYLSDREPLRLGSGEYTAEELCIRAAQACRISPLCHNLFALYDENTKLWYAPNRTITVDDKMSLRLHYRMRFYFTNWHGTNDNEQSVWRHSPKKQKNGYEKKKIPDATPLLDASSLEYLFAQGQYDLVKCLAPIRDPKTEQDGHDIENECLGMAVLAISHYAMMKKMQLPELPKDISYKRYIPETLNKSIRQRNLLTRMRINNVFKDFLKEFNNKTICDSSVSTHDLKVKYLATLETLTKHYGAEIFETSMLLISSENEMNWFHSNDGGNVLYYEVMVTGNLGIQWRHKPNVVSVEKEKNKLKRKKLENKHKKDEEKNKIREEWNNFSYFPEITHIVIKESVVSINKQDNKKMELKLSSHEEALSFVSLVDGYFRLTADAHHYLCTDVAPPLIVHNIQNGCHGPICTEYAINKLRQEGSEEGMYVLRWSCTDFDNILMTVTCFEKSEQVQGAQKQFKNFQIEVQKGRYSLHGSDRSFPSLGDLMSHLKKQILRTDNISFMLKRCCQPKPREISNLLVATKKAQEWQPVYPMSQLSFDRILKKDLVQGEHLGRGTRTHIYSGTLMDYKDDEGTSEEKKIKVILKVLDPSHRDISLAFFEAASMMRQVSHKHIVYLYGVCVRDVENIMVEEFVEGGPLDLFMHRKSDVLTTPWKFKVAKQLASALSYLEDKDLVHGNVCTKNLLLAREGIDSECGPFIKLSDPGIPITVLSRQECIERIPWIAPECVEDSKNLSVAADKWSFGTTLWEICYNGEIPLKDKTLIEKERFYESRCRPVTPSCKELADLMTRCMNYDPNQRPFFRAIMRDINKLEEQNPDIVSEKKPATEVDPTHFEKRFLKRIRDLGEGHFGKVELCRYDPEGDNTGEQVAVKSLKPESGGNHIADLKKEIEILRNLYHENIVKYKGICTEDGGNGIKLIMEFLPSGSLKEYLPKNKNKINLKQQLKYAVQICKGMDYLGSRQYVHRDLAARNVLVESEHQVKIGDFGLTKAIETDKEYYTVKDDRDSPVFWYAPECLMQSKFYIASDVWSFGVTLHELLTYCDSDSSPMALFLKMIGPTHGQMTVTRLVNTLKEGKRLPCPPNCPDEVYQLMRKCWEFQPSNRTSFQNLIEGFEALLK
Method: The inhibitory potency of candidate compounds of JAK1 done at Thermo Fisher Scientific in their Selectscreen using a Z-lyte assay. The 2×JAK1/Tyr 06 mixture is prepared in 50 mM HEPES pH 6.5, 0.01% BRIJ-35, 10 mM MgCl2, 1 mM EGTA, 0.02% NaN3. The final 10 μL of the Kinase Reaction consists of 21.2-91.5 ng JAK1 and 2 μM Tyr 06 in 50 mM HEPES pH 7.0, 0.01% BRIJ-35, 10 mM MgCl2, 1 mM EGTA, 0.01% NaN3. After the 1 hour Kinase Reaction incubation, 5 μL of a 1:128 dilution of Development Reagent is added.
as §2

[2] = system: IFNγ stimulated STAT1 phosphorylation on Tyr701 (JAK1/2); assay: JAK1/2 cellular target modulation: IFNγ stimulated phospho-STAT1 in PBMC; type: cell-based; settings: IFNγ 10 ng/ml, 1 hour compound preincubation, read-out: Infγ-STAT1 IC50
Source text: as §1

Row | IC50 (JAK3 (a.a. 781-1124)) [nM] | IC50 (JAK1) [nM] | IC50 ([1]; Homo sapiens, PBMC) [nM] | IC50 ([2]; Homo sapiens, PBMC) [nM] | Structure (SMILES) | IC50 ([1]; human PBMC) [nM] | IC50 ([2]; human PBMC) [nM]
1 | ≤ 10 | ≤ 10 | ≤ 100 | 100 to 1000 | CCOC(=O)c1cnc2[nH]ccc2c1N[C@@H]1CCCN(CCC#N)C1 [Example 123, ethyl (R)-4-((1-(2-cyanoethyl)piperidin-3-yl)amino)-1H-pyrrolo[2,3-b]pyridine-5-carboxylate] | – | –
2 | ≤ 10 | ≤ 10 | ≤ 100 | 100 to 1000 | CCOC(=O)c1cnc2[nH]ccc2c1NC1CCC(CCC#N)C1 (mixture of isomers) [Example 153, Ethyl 4-((3-(2-cyanoethyl)cyclopentyl)amino)-1H-pyrrolo[2,3-b]pyridine-5-carboxylate as a mixture of 2 stereoisomers] | – | –
3 | 10 to 100 | 10 to 100 | 100 to 1000 | > 1000 | CCOC(=O)c1cnc2[nH]ccc2c1N[C@H]1CC[C@H](O)C1 (single isomer, unassigned) [Example 75, (trans)-ethyl 4-((3-hydroxycyclopentyl)amino)-1H-pyrrolo[2,3-b]pyridine-5-carboxylate] | – | –
4 | ≤ 10 | ≤ 10 | 100 to 1000 | > 1000 | CCCOC(=O)c1cnc2[nH]ccc2c1N[C@H]1CCC[C@@H](CCC#N)C1 (racemic) [Example 139, (rac) (cis) propyl 4-((3-(2-cyanoethyl)cyclohexyl)amino)-1H-pyrrolo[2,3-b]pyridine-5-carboxylate] | – | –
5 | ≤ 10 | ≤ 10 | ≤ 100 | 100 to 1000 | CCOC(=O)c1cnc2[nH]ccc2c1N[C@H]1CC[C@H](CS(=O)(=O)NC)CC1 [Example 92, ethyl 4-(((1r,4r)-4-((N-methylsulfamoyl)methyl)cyclohexyl)amino)-1H-pyrrolo[2,3-b]pyridine-5-carboxylate] | – | –
6 | ≤ 10 | ≤ 10 | ≤ 100 | 100 to 1000 | COCCOC(=O)c1cnc2[nH]ccc2c1N[C@@H]1CCC[C@H](CCC#N)C1 (single isomer, unassigned; enantiomer 2) [Example 150, cis 2-methoxyethyl 4-((3-(2-cyanoethyl)cyclohexyl)amino)-1H-pyrrolo[2,3-b]pyridine-5-carboxylate, enantiomer 2] | – | –
7 | 10 to 100 | 100 to 1000 | > 1000 | – | CCOC(=O)c1cnc2[nH]ccc2c1N[C@H]1CCCN(C(=O)CC#N)C1 [Example 143, ethyl (S)-4-((1-(2-cyanoacetyl)piperidin-3-yl)amino)-1H-pyrrolo[2,3-b]pyridine-5-carboxylate] | – | –

More lines, now with the values behind:

Row | Structure (SMILES) | IC50 (JAK3 (a.a. 781-1124)) [nM] | IC50 (JAK1) [nM] | IC50 ([1]; Homo sapiens, PBMC) [nM] | IC50 ([2]; Homo sapiens, PBMC) [nM] | IC50 ([1]; human PBMC) [nM] | IC50 ([2]; human PBMC) [nM]
8 | CCOC(=O)c1cnc2[nH]ccc2c1N[C@H]1CC[C@H](OC(=O)CC#N)C1 (single isomer, unassigned) [Example 74, (trans)-ethyl 4-((3-(2-cyanoacetoxy)cyclopentyl)amino)-1H-pyrrolo[2,3-b]pyridine-5-carboxylate] | 10 to 100 | 10 to 100 | – | – | 100 to 1000 | > 1000
9 | C[C@@H]1CCN(C(=O)CC#N)C[C@@H]1Nc1c(C(=O)O)cnc2[nH]ccc12 [Example 120, 4-(((3R,4R)-1-(2-cyanoacetyl)-4-methylpiperidin-3-yl)amino)-1H-pyrrolo[2,3-b]pyridine-5-carboxylic acid trifluoroacetic acid Salt] | 100 to 1000 | 100 to 1000 | > 1000 | – | – | –
10 | CCOC(=O)c1cnc2[nH]ccc2c1N[C@H]1CN(C(=O)CC#N)CC[C@H]1C [Example 3, ethyl 4-(((3R,4R)-1-(2-cyanoacetyl)-4-methylpiperidin-3-yl)amino)-1H-pyrrolo[2,3-b]pyridine-5-carboxylate] | ≤ 10 | ≤ 10 | ≤ 100 | 100 to 1000 | – | –
11 | COC(=O)c1cnc2[nH]ccc2c1N[C@H]1CN(C(=O)CC#N)CC[C@H]1C [Example 118, methyl 4-(((3R,4R)-1-(2-cyanoacetyl)-4-methylpiperidin-3-yl)amino)-1H-pyrrolo[2,3-b]pyridine-5-carboxylate] | 10 to 100 | ≤ 10 | ≤ 100 | 100 to 1000 | – | –
12 | N#CCC(=O)N1CCC[C@@H](Nc2c(C(=O)O)cnc3[nH]ccc23)C1 [Example 121, (R)-4-((1-(2-cyanoacetyl)piperidin-3-yl)amino)-1H-pyrrolo[2,3-b]pyridine-5-carboxylic acid trifluoroacetic acid Salt] | 100 to 1000 | 100 to 1000 | > 1000 | – | – | –
13 | CCOC(=O)c1cnc2[nH]ccc2c1N(C)[C@H]1CC[C@H](OC(=O)CC#N)C1 (single isomer, unassigned) [Example 69, (trans)-ethyl 4-((3-(2-cyanoacetoxy)cyclopentyl)(methyl)amino)-1H-pyrrolo[2,3-b]pyridine-5-carboxylate] | 100 to 1000 | 100 to 1000 | – | – | > 1000 | –
14 | CCOC(=O)c1cnc2[nH]ccc2c1N(C)[C@H]1CC[C@H](O)C1 (single isomer, unassigned) [Example 68A, (trans)-Ethyl 4-((-3-hydroxycyclopentyl)(methyl)amino)-1H-pyrrolo[2,3-b] pyridine-5-carboxylate] | 100 to 1000 | 100 to 1000 | > 1000 | – | – | –
15 | CCOC(=O)c1cnc2[nH]ccc2c1N(C)[C@@H]1CC[C@@H](O)C1 (single isomer, unassigned) [Example 68B, (trans)-Ethyl 4-((-3-hydroxycyclopentyl)(methyl)amino)-1H-pyrrolo[2,3-b]pyridine-5-carboxylate] | 10 to 100 | 100 to 1000 | > 1000 | – | – | –
16 | CCOC(=O)c1cnc2[nH]ccc2c1N[C@@H]1CCCN(C(=O)[C@@H]2CC2(F)F)C1 [Example 156, ethyl 4-(((R)-1-((S)-2,2-difluorocyclopropane-1-carbonyl)piperidin-3-yl)amino)-1H-pyrrolo[2,3-b]pyridine-5-carboxylate] | 10 to 100 | – | 100 to 1000 | – | – | –
17 | C[C@@H]1CCN(C(=O)CC#N)C[C@@H]1Nc1c(C(=O)OC(C)(C)C)cnc2[nH]ccc12 [Example 119, tert-butyl 4-(((3R,4R)-1-(2-cyanoacetyl)-4-methylpiperidin-3-yl)amino)-1H-pyrrolo[2,3-b]pyridine-5-carboxylate] | 100 to 1000 | 100 to 1000 | > 1000 | – | – | –
18 | CCOC(=O)c1cnc2[nH]ccc2c1N(C)[C@H]1CC[C@H](CS(=O)(=O)NC)CC1 [Example 94, ethyl 4-(methyl((1r,4r)-4-((N-methylsulfamoyl)methyl)cyclohexyl)amino)-1H-pyrrolo[2,3-b]pyridine-5-carboxylate] | 10 to 100 | – | – | – | – | –
